For test [1], the system named is HDAC (nuclear fraction of Hela cells). Kind of test: Assay of enzyme inhibition of HDAC (BIOMOL Kit). It is filed as biochemical. To be noted: substrate 200 μM, 15 min at RT. The essentials:
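Enzyme source was HeLa nuclear fraction, incubated 15 min at RT with compound and an acetyl-lysine substrate at 200 μM. IC50 values were derived from concentration-response data.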

The subject of test [2] is K562 cells. The test can be described thus: Cell growth, CellTiter-Glo Luminescent Cell Viability Assay, K562. It is filed as cell-based. Particulars: Homo sapiens, 72 h incubation, read-out: IC50 antiproliferative assay K562. The essentials:
(§1)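 Exponentially growing cells exposed 72 h to a range of inhibitor concentrations. Viability measured as cellular ATP by CellTiter-Glo luminescence (2 min lysis, read after 10 min RT); IC50 calculated and binned into ranges (≤1.0, 1.0–3.0, ≥3.0 μM).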

Test [3] deals with HCT-116 cells. The test can be described thus: Cell growth, CellTiter-Glo Luminescent Cell Viability Assay, HCT-116. The format is cell-based. To be noted: Homo sapiens, HCT116 cells, 72 h incubation, read-out: IC50 antiproliferative assay HCT116. In a few lines: as §1
Test [4] concerns A549 cells. The test can be described thus: Cell growth, CellTiter-Glo Luminescent Cell Viability Assay, A549. The format is cell-based. To be noted: Homo sapiens, 72 h incubation, read-out: IC50 antiproliferative assay A549. The essentials: as §1
On the technique in general: In ATP-based viability assays light output follows the ATP content of the culture.

Take `O=C(/C=C/c1ccc2c(c1)C(=O)CC1(CCN(CCc3ccc(Cl)cc3)CC1)O2)NO` [Example 57, (E)-3-{1′-[2-(4-Chloro-phenyl)-ethyl]-4-oxo-spiro[chromane-2,4′-piperidine]-6-yl}-N-hydroxy-acrylamide]: the IC50 (as a rule, the concentration that inhibits the measured activity by half) in test [1] was 100 to 1000 nM; in test [2], not above 1000 nM; in test [3] it was not above 1000 nM; in test [4], not above 1000 nM.
Regarding `COc1ccc(CCN2CCC3(CC2)CC(=O)c2cc(/C=C/C(=O)NO)ccc2O3)cc1` [Example 58, (E)-3-{1′-[2-(4-Methoxy-phenyl)-ethyl]-4-oxo-spiro[chromane-2,4′-piperidine]-6-yl}-N-hydroxy-acrylamide], the IC50 in test [1] was less than 100 nM; in test [2], not above 1000 nM; in test [3], not above 1000 nM; in test [4], not above 1000 nM.
Regarding `O=C(/C=C/c1ccc2c(c1)C(=O)CC1(CCN(CCc3ccccc3F)CC1)O2)NO` [Example 59, (E)-3-{1′-[2-(2-Fluoro-phenyl)-ethyl]-4-oxo-spiro[chromane-2,4′-piperidine]-6-yl}-N-hydroxy-acrylamide], the IC50 in test [1] was 100 to 1000 nM; in test [2], not above 1000 nM; in test [3], not above 1000 nM; in test [4], not above 1000 nM.
Turning to `COc1cccc(CCN2CCC3(CC2)CC(=O)c2cc(/C=C/C(=O)NO)ccc2O3)c1` [Example 60, (E)-3-{1′-[2-(3-Methoxy-phenyl)-ethyl]-4-oxo-spiro[chromane-2,4′-piperidine]-6-yl}-N-hydroxy-acrylamide], the concentration for half-maximal inhibition (IC50) in test [1] is 100 to 1000 nM; in test [2] it was not above 1000 nM; in test [3] it was not above 1000 nM; in test [4], not above 1000 nM.
For `Nc1ccc(CCN2CCC3(CC2)CC(=O)c2cc(/C=C/C(=O)NO)ccc2O3)cc1` [Example 62, (E)-3-{1′-[2-(4-Amino-phenyl)-ethyl]-4-oxo-spiro[chromane-2,4′-piperidine]-6-yl}-N-hydroxy-acrylamide], the IC50 in test [1] is less than 100 nM; in test [2], not above 1000 nM; in test [3] it was not above 1000 nM; in test [4] it was not above 1000 nM.
Take `CNc1ccc(CCN2CCC3(CC2)CC(=O)c2cc(/C=C/C(=O)NO)ccc2O3)cc1` [Example 63, (E)-3-{1′-[2-(4-Methylamino-phenyl)-ethyl]-4-oxo-spiro[chromane-2,4′-piperidine]-6-yl}-N-hydroxy-acrylamide]: the IC50 in test [1] is less than 100 nM; in test [2] it was not above 1000 nM; in test [3], not above 1000 nM; in test [4], not above 1000 nM.
In the case of `Cn1c(CN2CCC3(CC2)CC(=O)c2cc(/C=C/C(=O)NO)ccc2O3)cc2ccccc21` [Example 64, (E)-3-{1′-(1-Methyl-1H-indol-2-ylmethyl)-4-oxo-spiro[chromane-2,4′-piperidine]-6-yl}-N-hydroxy-acrylamide], the IC50 in test [1] is 100 to 1000 nM; in test [2] it was 1000 to 3000 nM; in test [3] it was 1000 to 3000 nM; in test [4], 1000 to 3000 nM.
With `CCN1CCC2(CC1)CC(=O)c1cc(/C=C/C(=O)NO)ccc1O2` [Example 68, (E)-3-{1′-Ethyl-4-oxo-spiro[chromane-2,4′-piperidine]-6-yl}-N-hydroxy-acrylamide], the IC50 in test [1] is less than 100 nM; in test [2] it was not above 1000 nM; in test [3] it was not above 1000 nM; in test [4] it was not above 1000 nM.
`CC(C)N1CCC2(CC1)CC(=O)c1cc(/C=C/C(=O)NO)ccc1O2` [Example 69, (E)-3-{1′-Isopropyl-4-oxo-spiro[chromane-2,4′-piperidine]-6-yl}-N-hydroxy-acrylamide]: the IC50 in test [1] was 100 to 1000 nM; in test [2], not above 1000 nM; in test [3] it was not above 1000 nM; in test [4] it was not above 1000 nM.
In the case of `O=C(/C=C/c1ccc2c(c1)C(=O)NC1(CCN(CCc3ccccc3)CC1)O2)NO` [Example 71, (E)-3-{1′-(2-Phenyl-ethyl)-3,4-dihydro-4-oxo-spiro[2H-(1,3)-benzoxazine-2,4′-piperidin]-6-yl}-N-hydroxy-acrylamide], the IC50 in test [1] was less than 100 nM; in test [2], not above 1000 nM; in test [3], not above 1000 nM; in test [4] it was 1000 to 3000 nM.
With `O=C(/C=C/c1ccc2c(c1)C(=O)NC1(CCNCC1)O2)NO` [Example 72, (E)-3-{3,4-Dihydro-4-oxo-spiro[2H-(1,3)-benzoxazine-2,4′-piperidin]-6-yl}-N-hydroxy-acrylamide], the IC50 is less than 100 nM in test [1], not below 3000 nM in test [2], not below 3000 nM in test [3] and not below 3000 nM in test [4].
`CN1CCC2(CC1)NC(=O)c1cc(/C=C/C(=O)NO)ccc1O2` [Example 73, (E)-3-{1′-Methyl-3,4-dihydro-4-oxo-spiro[2H-(1,3)-benzoxazine-2,4′-piperidin]-6-yl}-N-hydroxy-acrylamide]: the IC50 in test [1] was less than 100 nM; in test [2], 1000 to 3000 nM; in test [3], not above 1000 nM; in test [4] it was 1000 to 3000 nM.
On to `O=C(/C=C/c1ccc2c(c1)C(=O)NC1(CCN(Cc3ccc(F)cc3)CC1)O2)NO` [Example 74, (E)-3-{1′-(4-Fluoro-benzyl)-3,4-dihydro-4-oxo-spiro[2H-(1,3)-benzoxazine-2,4′-piperidin]-6-yl}-N-hydroxy-acrylamide], for which the IC50 is 100 to 1000 nM in test [1], not above 1000 nM in test [2], not above 1000 nM in test [3] and 1000 to 3000 nM in test [4].
Take `CN1C(=O)c2cc(/C=C/C(=O)NO)ccc2OC12CCN(Cc1ccc(F)cc1)CC2` [Example 75, (E)-3-{1′-(4-Fluoro-benzyl)-3,4-dihydro-3-methyl-4-oxo-spiro[2H-(1,3)-benzoxazine-2,4′-piperidin]-6-yl}-N-hydroxy-acrylamide]: the IC50 in test [1] is 100 to 1000 nM; in test [2], not above 1000 nM; in test [3] it was not above 1000 nM; in test [4], 1000 to 3000 nM.
Turning to `CN1C(=O)c2cc(/C=C/C(=O)NO)ccc2OC12CCN(Cc1ccccc1)CC2` [Example 76, (E)-3-{1′-Benzyl-3,4-dihydro-3-methyl-4-oxo-spiro[2H-(1,3)-benzoxazine-2,4′-piperidin]-6-yl}-N-hydroxy-acrylamide], the IC50 is 100 to 1000 nM in test [1], 1000 to 3000 nM in test [2], not above 1000 nM in test [3] and 1000 to 3000 nM in test [4].
For `CN1C(=O)c2cc(/C=C/C(=O)NO)ccc2OC12CCN(CCc1ccccc1)CC2` [Example 77, (E)-3-{1′-(2-Phenyl-ethyl)-3,4-dihydro-3-methyl-4-oxo-spiro[2H-(1,3)-benzoxazine-2,4′-piperidin]-6-yl}-N-hydroxy-acrylamide], the IC50 was 100 to 1000 nM in test [1], not above 1000 nM in test [2], 1000 to 3000 nM in test [3] and 1000 to 3000 nM in test [4].
For `CN1CCC2(CC1)Oc1ccc(/C=C/C(=O)NO)cc1C(=O)N2C` [Example 78, (E)-3-{1′-Methyl-3,4-dihydro-3-methyl-4-oxo-spiro[2H-(1,3)-benzoxazine-2,4′-piperidin]-6-yl}-N-hydroxy-acrylamide], the 50% inhibitory concentration (IC50) is 100 to 1000 nM in test [1], 1000 to 3000 nM in test [2], 1000 to 3000 nM in test [3] and not below 3000 nM in test [4].
For `CN1C(=O)c2cc(/C=C/C(=O)NO)ccc2OC12CCNCC2` [Example 79, (E)-3-{3,4-Dihydro-3-methyl-4-oxo-spiro[2H-(1,3)-benzoxazine-2,4′-piperidin]-6-yl}-N-hydroxy-acrylamide], the IC50 is 100 to 1000 nM in test [1], not below 3000 nM in test [2], not below 3000 nM in test [3] and not below 3000 nM in test [4].
For the molecule `O=C(/C=C/c1ccc2c(c1)C(=O)N(Cc1ccccc1)C1(CCN(Cc3ccccc3)CC1)O2)NO` [Example 80, (E)-3-{1′-Benzyl-3,4-dihydro-3-benzyl-4-oxo-spiro[2H-(1,3)-benzoxazine-2,4′-piperidin]-6-yl}-N-hydroxy-acrylamide], the IC50 was in the range of 100 to 1000 nM in test [1], 1000 to 3000 nM in test [2], 1000 to 3000 nM in test [3] and 1000 to 3000 nM in test [4].
With `CN1CCC2(CC1)Oc1ccc(/C=C/C(=O)NO)cc1C(=O)N2Cc1ccccc1` [Example 81, (E)-3-{1′-Methyl-3,4-dihydro-3-benzyl-4-oxo-spiro[2H-(1,3)-benzoxazine-2,4′-piperidin]-6-yl}-N-hydroxy-acrylamide], the IC50 is 100 to 1000 nM in test [1], not above 1000 nM in test [2], not above 1000 nM in test [3] and not above 1000 nM in test [4].
Regarding `O=C(/C=C/c1ccc2c(c1)C(=O)N(Cc1ccccc1)C1(CCN(Cc3ccc(F)cc3)CC1)O2)NO` [Example 83, (E)-3-{1′-(4-Fluoro-benzyl)-3,4-dihydro-3-benzyl-4-oxo-spiro[2H-(1,3)-benzoxazine-2,4′-piperidin]-6-yl}-N-hydroxy-acrylamide], the IC50 is 100 to 1000 nM in test [1], 1000 to 3000 nM in test [2], 1000 to 3000 nM in test [3] and not below 3000 nM in test [4].
As for `O=C(/C=C/c1ccc2c(c1)C(=O)N(Cc1ccccc1)C1(CCN(CCc3ccccc3)CC1)O2)NO` [Example 84, (E)-3-{1′-(2-Phenyl-ethyl)-3,4-dihydro-3-benzyl-4-oxo-spiro[2H-(1,3)-benzoxazine-2,4′-piperidin]-6-yl}-N-hydroxy-acrylamide], the IC50 is 100 to 1000 nM in test [1], 1000 to 3000 nM in test [2], 1000 to 3000 nM in test [3] and 1000 to 3000 nM in test [4].

These data come from patent US9115148B2, “Spirocyclic derivatives as histone deacetylase inhibitors” (DAC S.R.L., priority 2008, dated 2015).
